Legend:
[1] = target: Muscarinic acetylcholine receptor M3 (Cavia porcellus) (UniProt Q8VH26); conditions: Ileum
Description: Peripheral postsynaptic muscarinic activity by contraction of the guinea pig ileum.

[2] = target: T1, Muscarinic acetylcholine receptor M1 (Rattus norvegicus) (UniProt P08482); conditions: Hippocampus
T1 sequence (whole entry): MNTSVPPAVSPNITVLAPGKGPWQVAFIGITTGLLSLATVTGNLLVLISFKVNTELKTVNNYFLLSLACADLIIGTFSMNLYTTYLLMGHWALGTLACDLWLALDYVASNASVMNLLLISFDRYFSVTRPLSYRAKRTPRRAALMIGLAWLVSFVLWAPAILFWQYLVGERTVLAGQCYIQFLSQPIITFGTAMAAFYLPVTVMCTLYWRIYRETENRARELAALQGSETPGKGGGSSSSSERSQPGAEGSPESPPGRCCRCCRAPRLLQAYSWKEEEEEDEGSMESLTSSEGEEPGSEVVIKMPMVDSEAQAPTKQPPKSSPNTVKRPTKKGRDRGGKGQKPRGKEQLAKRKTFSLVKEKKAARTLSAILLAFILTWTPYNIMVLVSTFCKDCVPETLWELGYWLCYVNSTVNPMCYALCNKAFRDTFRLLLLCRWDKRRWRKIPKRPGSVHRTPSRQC

[3] = target: T1, Muscarinic acetylcholine receptor M1 (Rattus norvegicus); conditions: Cervical ganglion
[4] = target: Muscarinic acetylcholine receptor
Description: Ability to displace [3H]cis--2-methyl-5-((dimethylamino)methyl)-1,3-di oxolane from muscarinic acetylcholine receptor in rat cortical tissue.

[5] = target: T2, Muscarinic acetylcholine receptor M1 (Rattus norvegicus, UniProt P08482)
T2 sequence (P08482 whole entry): T1 sequence (whole entry)
Description: Ability to displace [3H]pirenzepine (pir) from muscarinic acetylcholine receptor M1 in rat cortical tissue.

Cavia porcellus = species: Cavia porcellus; assay: (§1) Peripheral postsynaptic muscarinic activity was measured by contraction of the guinea pig ileum in M3 model; format: functional
[6] = target: Muscarinic acetylcholine receptor M3 (Cavia porcellus) (UniProt Q8VH26); assay: Peripheral postsynaptic muscarinic activity was measured relative to muscarine (100%); format: functional
[7] = target: T1, Muscarinic acetylcholine receptor M1 (Rattus norvegicus); assay: Central postsynaptic muscarinic activity was measured relative to muscurine (100%); format: functional, tissue-based
[8] = target: T2, Muscarinic acetylcholine receptor M1; assay: Compound was tested for its ability to displace [3H]pirenzepine (pir) from M1 Muscarinic receptor in rat cortical tissue
[9] = target: T1, Muscarinic acetylcholine receptor M1 (Rattus norvegicus); assay: Neuronal postsynaptic muscarinic activity was measured by firing rate of the rat hippocampal CA1 neurons in M1 model; format: functional, tissue-based; conditions: Hippocampus
[10] = target: Muscarinic acetylcholine receptor; remark: listed apart in the source
[11] = Ratio of binding affinities towards muscarinic receptor using Pir to that of CD as radioligand
[12] = target: T1, Muscarinic acetylcholine receptor M1 (Rattus norvegicus); assay: Central postsynaptic muscarinic activity was measured by slow depolarization of the rat cervical ganglion in M1 model; format: functional, tissue-based
[13] = target: Muscarinic acetylcholine receptor M3 (Cavia porcellus) (UniProt Q8VH26); assay: as §1; format: functional, tissue-based

Muscarinic acetylcholine receptor M3 (Cavia porcellus), sequence (Q8VH26 1-587): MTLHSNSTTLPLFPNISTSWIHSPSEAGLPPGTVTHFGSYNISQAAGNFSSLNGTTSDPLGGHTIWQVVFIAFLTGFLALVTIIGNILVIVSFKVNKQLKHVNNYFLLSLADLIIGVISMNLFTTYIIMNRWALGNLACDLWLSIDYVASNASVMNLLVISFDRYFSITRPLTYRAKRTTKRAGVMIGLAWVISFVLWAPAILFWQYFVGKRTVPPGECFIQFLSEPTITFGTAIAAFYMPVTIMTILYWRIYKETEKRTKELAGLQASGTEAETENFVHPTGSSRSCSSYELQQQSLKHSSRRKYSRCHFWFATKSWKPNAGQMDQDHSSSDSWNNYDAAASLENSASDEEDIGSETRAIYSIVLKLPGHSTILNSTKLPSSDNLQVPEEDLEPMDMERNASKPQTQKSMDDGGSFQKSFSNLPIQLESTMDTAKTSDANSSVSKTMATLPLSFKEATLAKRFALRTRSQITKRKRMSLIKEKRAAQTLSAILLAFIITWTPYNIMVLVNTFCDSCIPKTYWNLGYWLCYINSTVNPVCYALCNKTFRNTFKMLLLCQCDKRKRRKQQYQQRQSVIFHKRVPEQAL

| pD2 [1] | pD2 [2] | pD2 [3] | IC50 [4] [nM] | IC50 [5] [nM] | Structure (SMILES) | also measured |
| --- | --- | --- | --- | --- | --- | --- |
| 4.6 | 4.7 | 5.6 | 800 | 9950 | CC[C@H]1C(=O)NC[C@@H]1Cc1cncn1C |  |
|  |  |  |  |  | CC[C@@H]1C(O)OC[C@@H]1Cc1cncn1C (stereo partly specified) | Efficiency [6]: 22%; Efficiency [7]: 65%; IC50 [8]: 110000 nM; pD2 [9]: < 4; IC50 [10]: 45000 nM; Ratio [11]: 2.4; pD2 [12]: 5.9; pD2 [13]: 5.2 |
| < 4 | < 4 | 4.4 | 705 | 695 | CC[C@@H]1C(O)SC[C@@H]1Cc1cncn1C (stereo partly specified) |  |
| 4.5 | < 4 | 5.7 | 445 | 1800 | CC[C@@H]1COC[C@@H]1Cc1cncn1C |  |
| < 4 | < 4 | 4.7 | 330 | 285 | CC[C@H]1C(O)SC[C@@H]1Cc1cncn1C (stereo partly specified) |  |
| < 4 | 4.1 | 4.4 | 10000 | 10000 | CC[C@H]1C(=O)N(C)C[C@@H]1Cc1cncn1C |  |
| 5.6 |  | 5.2 | 45 | 51 | CC[C@H]1C(=S)SC[C@@H]1Cc1cncn1C |  |
| 4.2 | 4.5 | 5.2 | 845 | 5150 | CC[C@@H]1C(=O)NC[C@@H]1Cc1cncn1C |  |
| 6.7 | 6 | 7.2 |  |  | C[N+](C)(C)CCOC(N)=O |  |
| 4.8 | 5.4 | 4.7 | 320 | 775 | CC[C@H]1C(=O)SC[C@@H]1Cc1cncn1C |  |
| 4.2 |  | 100 | 4600 | 10200 | CC[C@@H]1C(=O)N(C)C[C@@H]1Cc1cncn1C |  |
| 7.5 | 6.3 | 7.8 | 6.4 | 2100 | CC1OCC(CN(C)C)O1 (stereo unspecified) |  |
| 5.3 | 5.3 | 6.5 | 54 | 435 | CC[C@@H]1C(=O)SC[C@@H]1Cc1cncn1C |  |
| 5.4 | 5.6 | 6.1 | 100 | 288 | CCN1C(=O)OC[C@@H]1Cc1cncn1C |  |

| Structure (SMILES) | pD2 [1] | pD2 [2] | pD2 [3] | IC50 [4] [nM] | IC50 [5] [nM] | also measured |
| --- | --- | --- | --- | --- | --- | --- |
| C[C@@H]1O[C@H](C[N+](C)(C)C)C[C@H]1O | 6.8 | 5.9 | 7.4 |  |  |  |
| Cc1ccc(C[N+](C)(C)C)o1 |  | 5.8 | 7.1 | 5.6 | 1410 | pD2 (Cavia porcellus): 6.8 |
| Cn1cncc1C[C@H]1COC(=O)C1 [PILOSININE] | < 4 |  | 4.2 | 2890 | 10000 |  |
| O=C1CCCN1CC#CCN1CCCC1 [OXOTREMORINE] | 7.1 | 7.1 | 8 | 2.8 | 113 |  |
